Experimental data taken from publication PMC10227015, “From a drug repositioning to a structure-based drug design approach to tackle acute lymphoblastic leukemia” (Nature Communications, 2023).
Like-named read-outs stand apart in the source and are kept apart here.

Assays:
CCRF-CEM cell line = assay: dCK cellular assay: CCRF-CEM proliferation in the presence of dT and dC; type: cell-based, human
Procedure: The dCK cellular assay was set up to assess the ability to inhibit dCK activity in a cellular model. The model was developed with a T-cell acute lymphoblastic leukemia cell line (CCRF-CEM), because of its high dependence on the SP, thus on dCK activity. Cellular assays were performed to assess the inhibition of cell proliferation under two conditions: (i) in the presence of the compound alone to determine the nonspecific effect on cells, independent of dCK (nonspecific toxicity) and (ii) in the presence of an inhibitor of the DNP to determine the ability of compounds to inhibit dCK and decrease tumor proliferation (activity on dCK). The inhibitor of the DNP chosen for the experiments was thymidine (dT), a physiological inhibitor of ribonucleotide reductase which arrests cell proliferation in phase S. The dTTP produced via thymidine kinase from dT acts as a RNR inhibitor by an allosteric regulation of the R1 subunit. The addition of the nucleoside deoxycytidine (dC) in the medium allows the rescue of cell proliferation by passing only through the salvage pathway, mediated by dCK. dC needs to be added exogenously to mimic physiological concentrations because it is not present in the cell culture medium, on the contrary to mouse model, in which it is naturally present in the serum. Therefore, cell proliferation under these conditions (+dT +dC) is dCK dependent and it is possible to determine the IC50 of dCK inhibitors on the inhibition of cell proliferation. Results are expressed as % cell proliferation relative to the control with DMSO.
The amount of reduced dye formed by metabolically active cells was quantified by its fluorescence measured at 560 nm (excitation) and 590 nm (emission) in a microplate reader (CLARIOstar, BMG Labtech). A blank well without cells was used as a background control. Each experiment was performed at least three times (with technical triplicates) and data are presented as the mean ± SD.

dCK-C3S-S74E = assay: Thermal shift assay (TSA); settings: for ΔTm (º) (TSA): Figure 2a, mean; for THERMAL SHIFT ASSAY +Tm (°): mean ± SD
[1] = Homo sapiens, Figure 2a, CCRF-CEM cell line, mean, read-out: IC50 (nM) (Cell Prolif)
[2] = Homo sapiens, read-out: dCK CELLULAR ASSAY IC50 (nM), CCRF-CEM, 200 µM dT and 1 µM dC, read-out: dCK […] ASSAY IC50

dCK-C3S-S74E, sequence (P27707 whole entry S74E, form open): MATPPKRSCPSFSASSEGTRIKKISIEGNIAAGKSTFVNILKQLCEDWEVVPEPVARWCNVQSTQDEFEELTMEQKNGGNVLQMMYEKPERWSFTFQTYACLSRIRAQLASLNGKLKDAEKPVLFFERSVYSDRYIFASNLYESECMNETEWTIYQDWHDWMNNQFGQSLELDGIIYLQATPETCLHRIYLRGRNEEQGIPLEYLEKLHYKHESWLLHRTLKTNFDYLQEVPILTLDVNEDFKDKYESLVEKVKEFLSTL

Row | SMILES | IC50 (CCRF-CEM cell line; [1]) | ΔTm (º) (TSA) (dCK-C3S-S74E) | THERMAL SHIFT ASSAY +Tm (°) (dCK-C3S-S74E) | IC50 (CCRF-CEM cell line; Figure 2a, CCRF-CEM cell line, mean, read-out: IC50 (nM) (Cell Prolif)) | IC50 (CCRF-CEM cell line; [2])
1 | Cc1ccc(-c2ccc(S(=O)(=O)N3CCN(C)CC3)cc2)cc1N(c1nc(-c2nc(N)cc(N)n2)cs1)C(C)C [OR0636] | 301 nM | 17.68 º | 17.7 ± 0.9 ° | – | –
2 | CCCN(c1nc(-c2nc(N)cc(N)n2)cs1)c1cc(-c2ccc(CN(C)C)cc2)ccc1C [OR0619] | 614 nM | 16.88 º | 16.9 ± 0.5 ° | – | –
3 | CCCN(c1nc(-c2nc(N)cc(N)n2)cs1)c1cc(-c2ccc(NC(=O)N3CCN(C)CC3)nc2)ccc1C [OR0616] | 135 nM | 19.23 º | 19.2 ± 0.8 ° | – | –
4 | CCCN(c1nc(-c2nc(N)cc(N)n2)co1)c1cc(-c2ccc(S(=O)(=O)N3CCN(C)CC3)cc2)ccc1C [OR0640] | 3670 nM | 18.22 º | 18.2 ± 0.9 ° | – | –
5 | CCCN(c1nc(-c2nc(N)cc(N)n2)cs1)c1cc(-c2cnc(S(=O)(=O)N3CCN(C)CC3)cc2C)ccc1C [OR0652] | – | 19.17 º | – | 7.3 nM | –
6 | CCCN(c1nc(-c2nc(N)cc(N)n2)cs1)c1cc(-c2c(F)cc(S(=O)(=O)N3CCN(C)CC3)cc2F)ccc1C [OR0647] | 11 nM | 21.06 º | 21.1 ± 1.6 ° | – | 10.9 ± 4.1 nM
7 | Cc1ccc(-c2ccc(CCN3CCN(C)CC3)cc2)cc1N(CCC(C)C)c1nc(-c2nc(N)cc(N)n2)cs1 [OR0605] | 2220 nM | 18.67 º | 18.7 ± 0.6 ° | – | –
8 | Cc1ccc(Oc2ccc(CN3CCN(C)CC3)cc2)cc1Nc1nc(-c2nccc(N)n2)cs1 [OR0143] | – | – | 13.2 ± 0.2 ° | – | 2790 ± 1740 nM
9 | CCCN(c1nc(-c2nc(N)cc(N)n2)cs1)c1cc(-c2ccc(C(=O)OC)nc2)ccc1C [OR0622] | 416 nM | 16.54 º | 16.5 ± 0.1 ° | – | –
10 | CN1CCN(CCc2ccc(-c3ccc4c(c3)N(c3nc(-c5nccc(N)n5)cs3)CCCC4)cc2)CC1 [OR0402] | – | – | 19.2 ± 0.3 ° | – | 1760 ± 160 nM
11 | Cc1ccc(-c2ccc(CCN3CCN(C)CC3)cc2)cc1N(CC1CC1)c1nc(-c2nc(N)cc(N)n2)cs1 [OR0604] | 609 nM | 19.7 º | 19.7 ± 1.0 ° | – | –
12 | CCCN(c1nc(-c2nc(N)cc(N)n2)cs1)c1cc(-c2ccc(S(=O)(=O)NCCN)cc2)ccc1C [OR0651] | 1530 nM | 20.83 º | 20.8 ± 1.2 ° | – | 1520 ± 178 nM
13 | CCCN(c1nc(-c2nc(N)cc(N)n2)cs1)c1cc(-c2ccc3[nH]ccc3c2)ccc1C [OR0626] | 5750 nM | 16.85 º | 16.9 ± 0.5 ° | – | –
14 | CCCN(c1nc(-c2nc(N)cc(N)n2)cs1)c1cc(-c2ccc(S(=O)(=O)N3CCN(C)CC3)cc2Cl)ccc1C [OR0641] | 10 nM | 21.11 º | 21.1 ± 1.1 ° | – | 10.5 ± 5 nM
15 | CCCCN(c1nc(-c2nc(N)cc(N)n2)cs1)c1cc(-c2ccc(CCN3CCN(C)CC3)cc2)ccc1C [OR0606] | 552 nM | 19.85 º | 19.9 ± 0.5 ° | – | –
16 | Cc1ccc(-c2ccc(S(=O)(=O)N3CCN(C)CC3)cc2)cc1N(C)c1nc(-c2nc(N)cc(N)n2)cs1 [OR0631] | 2740 nM | 16.75 º | 16.8 ± 0.1 ° | – | –
17 | CCN(c1nc(-c2nc(N)cc(N)n2)cs1)c1cc(-c2ccc(S(=O)(=O)N3CCN(C)CC3)cc2)ccc1C [OR0632] | 413 nM | 17.75 º | 17.8 ± 0.1 ° | – | –
